Entries after “also recorded” stand apart in the source; their conditions may differ.
What was measured:
Format in all cases: biochemical
picALuc [1] = experiment: Experiment 3: luminescence reaction of picALuc and nCTZ with methanol and NP-40; settings: picALuc 100 nM, nCTZ 8 μM, methanol
Experimental: The experiment was performed in the same manner as in Experiment 1 except that methanol (MeOH) manufactured by FUJIFILM Wako Pure Chemical Corporation) was used as an alcohol, NP-40 was used as a surfactant, and native coelenterazine (nCTZ, final concentration 8 μM) (manufactured by FUJIFILM Wako Pure Chemical Corporation) was used as a luminescent substrate. At this time, the final concentration of the luminescent enzyme (picALuc) was set to 100 nM. FIG. 4 is a graph showing a change in luminescence intensity over time.

picALuc [2] = experiment: Experiment 1: luminescence reaction of picALuc and CTZh in the presence of surfactant and ethanol; settings: luminescent enzyme picALuc for example 1 nM, CTZh, EtOH
Experimental: When a luminescent enzyme and a luminescent substrate were allowed to react in the presence of a surfactant and an alcohol, how the luminescence characteristics of the luminescent substrate change was examined. First, the luminescent enzyme and the surfactant described below were diluted in a buffer (137 mM NaCl, 9.6 mM KH2PO4, 2.7 mM KCl, pH 7.0) to obtain an enzyme solution with different concentrations of the luminescent enzyme and the surfactant.
Also, coelenterazine h (CTZh), which is the luminescent substrate, was dissolved in ethanol (EtOH) so that a final concentration thereof was 2.4 mM, to obtain an ethanol solution of CTZh. […]
Then, 50 μL of the enzyme solution and 50 μL of the substrate solution were mixed. The luminescence value was measured immediately after mixing. […] FIG. 1A is graphs showing a change in luminescence intensity over time. […] FIG. 1B is graphs showing the correlation between the maximum value of the normalized luminescence intensity (vertical axis) and the concentration of the luminescent enzyme and the concentration of the surfactant (horizontal axis). FIG. 1C is graphs showing the correlation between the half-life of the luminescence reaction (horizontal axis) and the concentration of the luminescent enzyme and the concentration of the surfactant (vertical axis). […]

NanoLuc = biological target: T1, NanoLuc (Oplophorus gracilirostris, UniProt Q9GV45, A31E/A60N/A81I/F95D/I117V/K70R/L54V/L99Q/M102K/N193R/P142E/Q151K/Q38R/Q45L/V71I/Y165I); experiment: Experiment 2: luminescence reaction of NanoLuc and CTZh in the presence of surfactant and ethanol; settings: luminescent enzyme NanoLuc for example 10 nM, CTZh, EtOH
T1 construct: purchased Promega
Experimental: The experiment was performed in the same manner as in Experiment 1 except that NanoLuc (manufactured by Promega) was used as a luminescent enzyme and NP-40 or CHAPS was used as a surfactant. FIG. 3A is graphs showing a change in luminescence intensity over time. […] FIG. 3B is graphs showing the correlation between the maximum value of the normalized luminescence intensity (vertical axis) and the concentration of the luminescent enzyme and the concentration of the surfactant (horizontal axis). FIG. 3C is graphs showing the correlation between the half-life of the luminescence reaction (horizontal axis) and the concentration of the luminescent enzyme and the concentration of the surfactant (vertical axis).

[3] = tested on: streptavidin-fused picALuc; experiment: Experiment 4: simulated detection system, biotinylated BSA detected with streptavidin-fused picALuc
Experimental: In this experiment, as a simulated detection system, biotinylated bovine serum albumin (BSA) was immobilized on a base of a 96-well plate and detection was performed using streptavidin-fused picALuc (FIG. 6A). Specifically, 100 μL of a biotinylated BSA solution (final concentration 10 μg/mL) was first added to each well. After each well was washed with a washing buffer (PBST (0.1% Tween)), blocking was performed by addition of 200 μL of a blocking buffer (20% Immnoblock (manufactured by KAC Co., ltd.) in PBS) to each well. After each well was washed with a washing buffer again, 100 μL of a streptavidin-fused picALuc solution (final concentration 1 μg/mL, diluted with 5% Immunoblock in PBST) was added to each well. Each well was washed with a washing buffer.
Then, immediately before the luminescent substrate was added, NP-40 was diluted with a buffer (PBS) so that the final concentration was 0.002 to 0.2%, and 100 μL of the resulting diluted solution was added to each well. Next, 100 μL of the substrate solution prepared in the same manner as in Experiment 1 was added to each well. The luminescence value was measured immediately after the substrate solution was added. At this time, as the measurement device, GloMax (registered trademark) Navigator Microplate Luminometer (manufactured by Promega) was used. FIG. 6B is a graph showing a change in luminescence intensity over time. […] FIG. 6C is a graph showing the correlation between the maximum value of the relative light unit (vertical axis) and the concentration of the surfactant (horizontal axis). FIG. 6D is a graph showing the correlation between the integrated value of the relative light unit (vertical axis) and the concentration of the surfactant (horizontal axis). The integrated value is the integrated value obtained for 30 minutes after the addition of the substrate solution.

picALuc [4] = experiment: Experiment 8: LC-MS of substrate consumed and substrate metabolites produced in luminescence reaction; settings: NP-40 0.01% versus 0%, picALuc 100 nM, nCTZ 8 μM
Experimental: By LC-MS analysis of a reaction solution containing picALuc and nCTZ, the effect of a surfactant (NP-40) on the amount of the substrate (nCTZ) consumed and the amount of the substrate metabolites (CTM, CTO, CTMD) produced was examined.
A substrate solution (100 μL) having the following composition was added to an enzyme solution (100 μL) having the following composition, to prepare a reaction solution.
At 0 minutes of the luminescence reaction (before the addition of the substrate solution), 10 minutes after the luminescence reaction, or 60 minutes after the luminescence reaction, 1/1000 (volume ratio) of hydrochloric acid was added to the reaction solution to stop the luminescence reaction, and methanol, which was five times the amount of the reaction solution, was added, followed by centrifugation. Then, the supernatant was collected to remove the luminescent enzyme. After that, each reaction solution was analyzed with an LC-MS device to measure the respective amounts of nCTZ, CTM, CTO, and CTMD (FIG. 11). The measurement conditions at this time are as follows.
It was thought that the amount of nCTZ was greater than the actual amount when NP-40 was added due to ion effects. Therefore, it was normalized to the amount of nCTZ when NP-40 was not added. Furthermore, the fact that CTM, CTO, and CTMD were already present in the reaction solution at 0 minutes of luminescence reaction is thought to be caused by converting nCTZ to these compounds during storage of nCTZ. Therefore, the amount of nCTZ consumed and the respective amounts of CTM, CTO, and CTMD produced were calculated by subtracting the amount of each component that was present before the reaction (FIG. 12).

picALuc [5] = experiment: Experiment 7: inhibition of luminescence reaction by substrate metabolites with or without NP-40; settings: metabolite 1 μM; for luminescence value on addition of substrate metabolite: picALuc 100 nM, nCTZ 8 μM, 60 minutes incubation; for suppression of the decreased ratio in the luminescence value by addition of a surfactant: NP-40 (+) versus NP-40 (−)
Experimental: CTM, CTO, or CTMD was added to a mixture solution having the composition described below so that a final concentration was 0 M or 1 μM, followed by incubation at room temperature for 60 minutes. The luminescence value was then measured. At this time, as the measurement device, a GloMax (registered trademark) Navigator Microplate Luminometer (manufactured by Promega) was used. The time indicating the maximum luminescence value (time from addition of the substrate) varies greatly depending on each condition. Therefore, in this experiment, the luminescence value immediately after the addition of the substrate was compared, rather than the maximum luminescence value, so that the amount of the substrate consumed due to the luminescence reaction and the amount of the substrate oxidation due to elapsed time were not taken into consideration. FIG. 10A is graphs showing the correlation between the relative light unit (vertical axis) and the presence or absence of the surfactant and the substrate metabolites (horizontal axis). FIG. 10B is graphs showing the relationship between the rate of decrease in the amount of luminescence due to the addition of the substrate metabolites (vertical axis) and the presence or absence of the surfactant (horizontal axis).
NP-40 (final concentration 0% or 0.01%) picALuc (final concentration 100 nM) nCTZ (final concentration 8 μM) […]
Buffer (137 mM NaCl, 9.6 mM KH2PO4, 2.7 mM KCl, pH 7.0, remainder)

T1 sequence (Q9GV45 other isoform, or with tags, fused parts or gaps with the stated changes): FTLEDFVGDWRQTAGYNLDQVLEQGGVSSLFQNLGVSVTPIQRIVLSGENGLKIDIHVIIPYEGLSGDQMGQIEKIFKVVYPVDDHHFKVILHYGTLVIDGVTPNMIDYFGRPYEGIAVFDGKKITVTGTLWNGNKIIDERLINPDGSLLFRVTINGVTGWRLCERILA

Molecule | maximum value of the normalized luminescence intensity (picALuc [2]) | maximum value of the normalized luminescence intensity (NanoLuc) | luminescence value on addition of substrate metabolite (picALuc [5]; NP-40 (+) 0.01%) | suppression of the decreased ratio in the luminescence value by addition of a surfactant (picALuc [5]) | luminescence value on addition of substrate metabolite (picALuc [5]; NP-40 (−)) | also measured
poly(oxyethylene)=octylphenyl ether [NP-40] | enhancement of the luminescence intensity was also observed | enhancement of the luminescence intensity was also observed |  |  |  | change in luminescence intensity over time (picALuc [1]): sustained luminescence and enhancement of the luminescence intensity were observed; maximum value of the relative light unit versus when NP-40 was not added ([3]; 0.1% NP-40): 2.2 times; integrated value of the relative light unit versus when NP-40 was not added ([3]; 0.1% NP-40, integrated for 30 minutes after addition of substrate solution): 3.2 times; maximum value of the relative light unit and sustained luminescence ([3]; NP-40 0.002 to 0.2%): an increase in the maximum value of the relative light unit and the sustained luminescence were observed dependently on the concentration; amount of CTM produced when the surfactant was added (picALuc [4]): decreased; amount of CTMD produced when the surfactant was added (picALuc [4]): increased; amount of CTO produced when the surfactant was added (picALuc [4]): remained almost unchanged; amount of nCTZ consumed when the surfactant was added (picALuc [4]): increased
O=c1[nH]cc(-c2ccc(O)cc2)nc1Cc1ccccc1 [CTO, 3-benzyl-5-(4-hydroxyphenyl) pyrazin-2 (1H)-one] |  |  | a decrease in the luminescence value was small | a tendency to significantly suppress the decreased ratio | a decrease in the luminescence value was observed | 
O=C(Cc1ccc(O)cc1)Nc1ncc(-c2ccc(O)cc2)nc1Cc1ccccc1 [CTMD, coelenteramide] |  |  |  | a tendency to significantly suppress the decreased ratio | the luminescence value significantly decreased | 
CC(CCC(=O)NCCC[N+](C)(C)CCCS(=O)(=O)O)C1CCC2C3C(O)CC4CC(O)CCC4(C)C3CC(O)C12C (centres unmarked) [CHAPS] | enhancement of the luminescence intensity was also observed | enhancement of the luminescence intensity was also observed |  |  |  | 
Nc1ncc(-c2ccc(O)cc2)nc1Cc1ccccc1 [CTM, coelenteramine] |  |  | a decrease in the luminescence value was clearly observed; also recorded: a decrease in the luminescence value was small | no significant suppression was observed | the luminescence value significantly decreased | 

From US20250388810A1, “Kit for Sustaining Luminescence of Luminescent Substrate and Method for Sustaining Luminescence of Luminescent Substrate” (SHIMADZU CORPORATION, priority 2024, published 2025)
